Source: patent US6756480B2, “Modulators of receptors for parathyroid hormone and parathyroid hormone-related protein” (Amgen Inc., priority 2000, dated 2004)

Assays:
mice [1] = conditions: non-Fc conjugated peptide, stated as usual behaviour; cited from earlier work
Sprague Dawley (SD) rats = assay: Anabolic assay: lumbar (L3) BMD by DEXA, PTH constructs with or without OPG-Fc; assay type: in vivo; conditions: 6-month-old male SD rats, DEXA Day 7; OPG-Fc 1 mg/kg once; PTH-(1-34) 20 nMoles/kg x3; PTH-(1-34)-Fc 60 nMoles/kg once
Description: Briefly, 6-month-old male Sprague Dawley (SD) rats were divided into groups of 6. Baseline bone mineral density (BMD) was determined in the third lumbar vertebra (L3) of all rats by dual-energy X-ray absorptiometry (DEXA) (Day 0). Rats were then treated according to the following schedule:
Group 1: Vehicle controls (PBS, injected SC, Days 1, 3, and 5)
Group 2: OPG-Fc, single SC injection (1 mg/kg) on Day 1
Group 3: PTH-(1-34), SC injections on Days 1, 3, and 5, at 20 nMoles PTH/kg/injection. This represents an optimal anabolic PTH regimen.
Group 4: Same as group 3, but with a single OPG-Fc injection on Day 1.
Group 5: Single SC injection of PTH-(1-34)-Fc at 60 nMoles/kg, on Day 1. This represents a molar dose which is equivalent to the total dose of PTH-(1-34) received by group 3, but in a single injection.
Group 6: Same as group 5, but with a single OPG-Fc injection (SC, 1 mg/kg) on Day 1.
DEXA of the lumbar spine was performed again on Day 7 to evaluate changes in BMD. […] The anabolic effect of a single treatment with PTH-(1-34)-Fc plus OPG-Fc was greater than that induced by multiple injections of PTH-(1-34), with or without OPG-Fc co-treatment.
Normal 6 month old male rats were treated with PTH-Fc or PTH or vehicle by a single SC injection. Some rats also received a single SC injection of OPG. BMD was determined 7 days later by DEXA. Data represent means+SD, N=6 rats/group.

mice [2] = assay: Hypercalcemia assay: murine hypercalcemia model, single SC injection, blood ionized calcium; assay type: in vivo; conditions: single SC injection, equimolar doses, blood ionized calcium
Description: Mice were challenged with vehicle (PBS, —X—), or with PTH-(1-34) (open symbols) or with PTH-(1-34)-Fc (closed symbols). Doses were 156 nmol/kg (circles), 469 nmol/kg (triangles) or 1,560 nmol/kg (squares). Data represent group means, n=6 mice/group.
We tested the potency and duration of effect of PTH-(1-34)-Fc in a murine hypercalcemia model. Briefly, mice were injected once SC with varying doses of PTH-(1-34) or PTH-(1-34)-Fc, and peripheral blood was collected from the retroorbital sinus for determination of blood ionized calcium. The half-life and the potency of PTH-(1-34)-Fc was greater than that of PTH-(1-34), as evidenced by the sustained hypercalcemic response of mice to the former agent (FIG. 4). Hypercalcemia induced by PTH-(1-34) persisted for 6-24 h, while equimolar doses of PTH-(1-34)-Fc caused more sustained hypercalcemia (48-72 h). This duration of response is consistent with greater half-life of the PTH-(1-34)-Fc construct vs. PTH-(1-34).

mice [3] = assay: Mouse bioassay: SC injection days 0, 5, 10; clinical chemistry (calcium, AP, TRAP) and tibial pQCT; assay type: in vivo
Description: Peripheral blood was obtained daily for 3 days following single subcutaneous injections of the indicated compounds.
Peripheral quantitative computed tomography (pQCT) was performed on the proximal tibial metaphysis of mice on day 15, after injections of PTH constructs on day 0, 5 and 10.
We then tested the effects of PTH-(1-34), PTH-(1-34)-Fc, PTH-(1-31)-Fc and PTH-(1-30)-Fc in mice. Four week old male mice were injected on days 0, 5, and 10 with vehicle or with PTH fragments, by SC injection. Peripheral blood was obtained for clinical chemistry at 24, 48, and 72 h. Mice were killed on day 15, vertebrae, tibiae and femurs were harvested for histology and one tibia was collected for bone density measurements (peripheral quantitative computed tomography, pQCT). Clinical chemistry endpoints included total serum calcium, serum alkaline phosphatase (AP, a marker of osteoblast activity), and serum tartrate-resistant acid phosphatase (TRAP, a marker of osteoclast activity). For each animal, the ratio of AP:TRAP was calculated as an index of relative osteoblast activity compared to osteoclast activity. A higher AP:TRAP ratio would indicate a potentially more anabolic agent.

[4] = system: rat osteoblast-like ROS 17/2.8 cells; assay: cAMP accumulation assay (IBMX, 15 minute challenge, ELISA); assay type: cell-based; conditions: 15 minutes
Description: Cultures were treated with the phosphodiesterase inhibitor IBMX and then challenged for 15 minutes with various PTH fragments. CAMP was measured by ELISA.
We tested the relative ability of PTH-Fc constructs to stimulate cAMP accumulation in rat osteoblast-like ROS 17/2.8 cells. Cultures were treated with the phosphodiesterase inhibitor IBMX to promote the accumulation of cAMP. Cultures were then challenged for 15 minutes with either vehicle (PBS), or various PTH constructs.

male BDF1 mice = assay: Monotherapy in adult mice: twice-weekly PTH-(1-34)-Fc versus daily PTH-(1-34), tibial BMD by pQCT; assay type: in vivo; conditions: 3 weeks, PTH-(1-34)-Fc twice weekly, various doses
Description: Daily PTH [PTH-(1-34)] was given at 80 μg/kg/day (20 nmol/kg/day).
Briefly, male BDF1 mice (4 months of age) were treated twice per week by subcutaneous injection with various doses of PTH-(1-34)-Fc or with vehicle (PBS). Other mice were treated daily with SC injections of PTH-(1-34) at a dose of 80 μg/kg/day (20 nmol/kg/day), a treatment regimen which is optimal for increasing bone mass in rodents (M. Gunness-Hey and J. M. Hock, Metab. Bone Dis. & Rel. Res. 5:177-181, 1984). After 3 weeks, mice were sacrificed and tibiae were analyzed for bone mineral density (BMD) via pQCT (FIG. 10).

## human PTH(1-34) [PTH-(1-34), reference compound]
Mice [1]
  duration of transient increase in serum calcium normally caused: 12 h
Sprague Dawley (SD) rats
  BMD in L3 compared to PBS-treated rats: increased modestly
Mice [2]
  duration of hypercalcemia: 6 to 24 h
Mice [3]; 300 nmoles/kg
  calculated AP:TRAP ratio: unchanged
Mice [3]; 300 nmoles/kg (given for PTH-(1-34)-Fc), 72 h
  serum AP (osteoblast marker): unchanged
Mice [3]; 300 nmoles/kg SC (equimolar), 24, 48, 72 h
  serum calcium: not significantly different
Mice [3]; 300 nmoles/kg on day 0, 5, 10, pQCT day 15
  bone mineral density (proximal tibial metaphysis): modest (non-significant) anabolic effect
Mice [3]; mice, after single SC injection
  serum TRAP (osteoclast marker): not significantly changed
[4]
  potency in cAMP accumulation relative to PTH-(1-31)-Fc and PTH-(1-30)-Fc: slightly more potent
Male BDF1 mice; PTH-(1-34) daily 80 μg/kg/day
  cancellous BMD compared to vehicle: significantly increased
  total tibial BMD compared to vehicle: significantly increased
Male BDF1 mice; PTH-(1-34) daily
  cortical BMD in the tibia: not significantly enhanced
